Values of other authors in patent publication US20120263802A1 (priority 2003, published 2012).

Assays:
[1] = test system: VEGF RTK
[2] = test system: range of models; settings: once-daily oral administration; Wedge et al, Proc. Am. Assoc. Canc. Res. 2001; 42: abstract 3126

Question: Which “inhibition of VEGF RTK” value [1] does the source give for `COc1cc2c(Nc3ccc(Br)cc3F)ncnc2cc1OCC1CCN(C)CC1` [ZD6474, 4-(4-bromo-2-fluoroanilino)-6-methoxy-7-(1-methylpiperidin-4-ylmethoxy)quinazoline] here?
Answer: potent inhibitor

Question: And the anti-tumour activity [2]?
Answer: broad-spectrum anti-tumour activity
